Data from PubChem BioAssay AID1117350 (Cheminformatics & Chemogenomics Research Group (CCRG), …, 2015).
Several values for one entry are separate records, joined by “and”; a condition that tells them apart may be missing. Equal values may be shown once. Activity calls are given as the source filed them. How the calls were made is not given here.

The compounds below were run on HeLa, chromatin condensation phenotype imaging (assay: condensed chromatin phenotype in HeLa cells – imaging, IC50, dose response (AID 1117350)).
For `CC(=O)Oc1ccccc1C(=O)Nc1ncc([N+](=O)[O-])s1`, the IC50 was > 10 µM (inactive).
Compound `COc1cc([C@@H]2c3cc4c(cc3[C@H](O)[C@H]3COC(=O)[C@H]23)OCO4)cc(OC)c1OC` has an IC50 of 0.0112 µM.
For `C[C@@H](O[C@H]1OCCN(Cc2n[nH]c(=O)[nH]2)[C@H]1c1ccc(F)cc1)c1cc(C(F)(F)F)cc(C(F)(F)F)c1`, the IC50 was > 10 µM (inactive).
`COc1cccc2c1C(=O)c1c(O)c3c(c(O)c1C2=O)C[C@@](O)(C(=O)CO)C[C@@H]3O[C@H]1C[C@H](N)[C@H](O[C@@H]2CCCCO2)[C@H](C)O1` was tested, and the IC50 was > 10 µM (inactive).
For `CC(C)(C)C1CCC(CC2=C(O)c3ccccc3C(=O)C2=O)CC1` (stereo unspecified), the IC50 was > 10 µM (inactive).
Work on `COC(=O)Nc1nc2ccc(C(=O)c3ccccc3)cc2[nH]1` yielded an IC50 of 0.0648 µM.
With `COc1ccc(-c2ccc3cc(C(=O)O)ccc3c2)cc1C12CC3CC(CC(C3)C1)C2` the IC50 was > 10 µM (inactive).
For `CC(C)=CCNc1ncnc2c1ncn2[C@@H]1O[C@H](CO)[C@@H](O)[C@H]1O`, the IC50 was > 10 µM (inactive).
`O=[N+]([O-])c1ccc(Oc2ccc(N=C=S)cc2)cc1` was tested, and the IC50 was > 10 µM (inactive).
In the case of `CC(=O)Nc1ccn(C2COC(COC(=O)c3ccccc3)O2)c(=O)n1` (stereo unspecified), the IC50 is reported as > 10 µM (inactive).
With `COc1ccc(/C=C/C(=O)c2ccc(OC)cc2OC)cc1` the IC50 was > 10 µM (inactive).
For `C[C@@H]1C[C@@H]([C@H](O)CC2CC(=O)NC(=O)C2)C(=O)[C@@H](C)C1`, the IC50 was > 10 µM (inactive).
`O=C(O)CCc1nc2ccccc2[nH]1` was tested, and the IC50 was > 10 µM (inactive).
`CCc1nc(N)nc(N)c1-c1ccc(Cl)cc1` was tested, and the IC50 was > 10 µM (inactive).
Compound `COc1cccc2c1C(=O)c1c(O)c3c(c(O)c1C2=O)C[C@@](O)(C(C)=O)C[C@@H]3O[C@H]1C[C@H](N)[C@H](O)[C@H](C)O1` has an IC50 of 0.374 µM.
In the case of `COCc1c(C(C)C)nc(C(C)C)c(/C=C/[C@@H](O)C[C@@H](O)CC(=O)O)c1-c1ccc(F)cc1`, the IC50 is reported as > 10 µM (inactive).
For `O=c1[nH]c(=O)n([C@H]2C[C@H](O)[C@@H](CO)O2)cc1I`, the IC50 was > 10 µM (inactive).
With `Cc1cc(C2CCCCC2)n(O)c(=O)c1` the IC50 was > 10 µM (inactive).
`CCCCc1ccc2nc(NC(=O)OC)[nH]c2c1` was tested, and the IC50 was 0.00717 µM.
`CC[C@H]1CN2CCc3cc(OC)c(OC)cc3[C@@H]2C[C@@H]1C[C@H]1NCCc2cc(OC)c(OC)cc21` gave an IC50 of 0.948 µM.
For `CN(C)CCC=C1c2ccccc2CCc2ccccc21`, the IC50 was > 10 µM (inactive).
For `CC(C)=CCOc1ccc(/C=C/C(=O)c2ccc(OCC=C(C)C)cc2OCC(=O)O)cc1`, the IC50 was > 10 µM (inactive).
`CCC(C)(C)C(=O)O[C@H]1C[C@@H](C)C=C2C=C[C@H](C)[C@H](CC[C@@H]3C[C@@H](O)CC(=O)O3)[C@H]21` was tested, and the IC50 was > 10 µM (inactive).
For `NCCCC[C@H](N[C@@H](CCc1ccccc1)C(=O)O)C(=O)N1CCC[C@H]1C(=O)O`, the IC50 was > 10 µM (inactive).
In the case of `CC(=O)O[C@@]12CO[C@@H]1C[C@H](O)[C@@]1(C)C(=O)[C@H](O)C3=C(C)[C@@H](OC(=O)[C@H](O)[C@@H](NC(=O)OC(C)(C)C)c4ccccc4)C[C@@](O)([C@@H](OC(=O)c4ccccc4)[C@H]21)C3(C)C`, the IC50 is reported as 0.00317 µM.
`CCN(CCCCOC(=O)c1ccc(OC)c(OC)c1)C(C)Cc1ccc(OC)cc1` (stereo unspecified) was tested, and the IC50 was > 10 µM (inactive).
`[O-][n+]1ccccc1SSc1cccc[n+]1[O-]` was tested, and the IC50 was 2.23 µM.
In the case of `NC(N)=NN=C(/C=C/c1ccc([N+](=O)[O-])o1)/C=C/c1ccc([N+](=O)[O-])o1`, the IC50 is reported as > 10 µM (inactive).
With `CCCCCCCCCCCCCC[N+](C)(C)C` the IC50 was > 10 µM (inactive).
With `CCN1/C(=C/C=C/c2sc3ccccc3[n+]2CC)Sc2ccccc21` the IC50 was 4.48 µM.
With `CO[C@@H]1[C@@H](OC)[C@H](C)[C@@](O)(CC(=O)O)O[C@H]1[C@H](C)[C@H]1O[C@@]2(CC[C@@](C)([C@H]3CC[C@@](C)([C@@H]4O[C@@H]([C@H]5O[C@](C)(O)[C@H](C)C[C@@H]5C)C[C@@H]4OC4C[C@H](OC)[C@@H](OC)[C@H](C)O4)O3)O2)C[C@H](O)[C@H]1C` (stereo partly specified) the IC50 was > 10 µM (inactive).
For `Nc1nc(Cl)nc2c1ncn2[C@@H]1O[C@H](CO)[C@@H](O)[C@@H]1F`, the IC50 was > 10 µM (inactive).
In the case of `COc1ccc2cc3[n+](cc2c1OC)CCc1cc2c(cc1-3)OCO2`, the IC50 is reported as > 10 µM (inactive).
In the case of `CCC(C)n1ncn(-c2ccc(N3CCN(c4ccc(OC[C@H]5CO[C@](Cn6cncn6)(c6ccc(Cl)cc6Cl)O5)cc4)CC3)cc2)c1=O` (stereo partly specified), the IC50 is reported as > 10 µM (inactive).
In the case of `O=C(CCl)c1ccc(Cl)cc1Cl`, the IC50 is reported as 0.541 µM.
`CC(C)c1c(C(=O)Nc2ccccc2)c(-c2ccccc2)c(-c2ccc(F)cc2)n1CC[C@@H](O)C[C@@H](O)CC(=O)O` was tested, and the IC50 was > 10 µM (inactive).
For `CC[C@]1(O)C[C@@H]2CN(CCc3c([nH]c4ccccc34)[C@@](C(=O)OC)(c3cc4c(cc3OC)N(C)[C@H]3[C@@](O)(C(=O)OC)[C@H](OC(C)=O)[C@]5(CC)C=CCN6CC[C@]43[C@@H]65)C2)C1`, the IC50 was 0.00452 µM and 0.0032 µM.
In the case of `CN(C)CCOC(c1ccccc1)c1ccc(Br)cc1` (stereo unspecified), the IC50 is reported as > 10 µM (inactive).
With `O=C(Nc1ccc([N+](=O)[O-])cc1Cl)c1cc(Cl)ccc1O` the IC50 was > 10 µM (inactive).
In the case of `C[C@]12CC[C@@H]3c4ccc(O)cc4CC[C@H]3[C@@H]1CC[C@@H]2OC(=O)CCC1CCCC1`, the IC50 is reported as > 10 µM (inactive).
With `Cn1cnc([N+](=O)[O-])c1Sc1ncnc2nc[nH]c12` the IC50 was > 10 µM (inactive).
With `O[C@@H](CNC[C@H](O)[C@H]1CCc2cc(F)ccc2O1)[C@@H]1CCc2cc(F)ccc2O1` the IC50 was > 10 µM (inactive).
With `CCCCCCNC(=O)n1cc(F)c(=O)[nH]c1=O` the IC50 was > 10 µM (inactive).
`CO[C@@]12[C@H](COC(N)=O)C3=C(C(=O)C(C)=C(N)C3=O)N1C[C@@H]1N[C@@H]12` was tested, and the IC50 was > 10 µM (inactive).
In the case of `Cc1ccc(S(=O)(=O)NC(=O)NN2CC3CCCC3C2)cc1` (stereo unspecified), the IC50 is reported as > 10 µM (inactive).
With `O=Cc1ccc(O)c(O)c1O` the IC50 was > 10 µM (inactive).
In the case of `CCCCCCC[N+](CC)(CC)CCCCc1ccc(Cl)cc1`, the IC50 is reported as > 10 µM (inactive).
In the case of `Nc1ccc2cc3ccc(N)cc3nc2c1`, the IC50 is reported as 2.47 µM.
In the case of `CC(C)n1c(/C=C/[C@@H](O)C[C@@H](O)CC(=O)O)c(-c2ccc(F)cc2)c2ccccc21`, the IC50 is reported as > 10 µM (inactive).
With `Cc1nc(N)nc(N)c1-c1ccc(Cl)c(Cl)c1` the IC50 was > 10 µM (inactive).
In the case of `CCc1oc2ccccc2c1C(=O)c1cc(I)c(O)c(I)c1`, the IC50 is reported as > 10 µM (inactive).
With `CCN(CC)CCOc1ccc(C(O)(Cc2ccc(Cl)cc2)c2ccc(C)cc2)cc1` (stereo unspecified) the IC50 was > 10 µM (inactive).
With `CN1CCC(Nc2ncc3ncnc(Nc4ccc(F)c(Cl)c4)c3n2)CC1` the IC50 was > 10 µM (inactive).
For `Oc1c(I)cc(Cl)c2cccnc12`, the IC50 was > 10 µM (inactive).
`COc1ccc2cc1Oc1ccc(cc1)C[C@H]1c3c(cc4c(c3Oc3cc5c(cc3OC)CCN(C)[C@@H]5C2)OCO4)CCN1C` was tested, and the IC50 was > 10 µM (inactive).
In the case of `CC(=O)[C@]1(O)Cc2c(O)c3c(c(O)c2[C@@H](O[C@H]2C[C@H](N)[C@H](O)[C@H](C)O2)C1)C(=O)c1ccccc1C3=O`, the IC50 is reported as 0.659 µM.
`CC[C@@H]([C@H](C)O)n1ncn(-c2ccc(N3CCN(c4ccc(OC[C@@H]5CO[C@@](Cn6cncn6)(c6ccc(F)cc6F)C5)cc4)CC3)cc2)c1=O` was tested, and the IC50 was > 10 µM (inactive).
With `COc1c(C)c2c(c(O)c1C/C=C(\C)CCC(=O)OCCN1CCOCC1)C(=O)OC2` the IC50 was > 10 µM (inactive).
`O=C1[C@H]2CCCC[C@H]2C(=O)N1CCCCN1CCN(c2nsc3ccccc23)CC1` was tested, and the IC50 was > 10 µM (inactive).
`O=c1[nH]c(=O)n([C@H]2C[C@H](O)[C@@H](CO)O2)cc1Br` was tested, and the IC50 was > 10 µM (inactive).
With `O=C(O)c1ccc(-n2nc(-c3ccccc3O)nc2-c2ccccc2O)cc1` the IC50 was > 10 µM (inactive).
With `O=C1C(I)=CC(=C(c2cc(I)c(O)c(I)c2)c2ccccc2C(=O)O)C=C1I` the IC50 was > 10 µM (inactive).
With `CCN(CC)CCNc1ccc(CO)c2sc3ccccc3c(=O)c12` the IC50 was > 10 µM (inactive).
For `CC(C)OC(=O)OCOP(=O)(CO[C@H](C)Cn1cnc2c(N)ncnc21)OCOC(=O)OC(C)C`, the IC50 was > 10 µM (inactive).
`Oc1c(I)cc(I)c2cccnc12` was tested, and the IC50 was > 10 µM (inactive).
With `C[n+]1c2cc(N)ccc2cc2ccc(N)cc21` (tested in a mixture with another compound) the IC50 was 2.19 µM.
With `CCCNCC(O)COc1ccccc1C(=O)CCc1ccccc1` (stereo unspecified) the IC50 was > 10 µM (inactive).
In the case of `O=C1C(=O)c2ccccc2C(O)=C1C1CCC(c2ccc(Cl)cc2)CC1` (stereo unspecified), the IC50 is reported as > 10 µM (inactive).
With `CCc1oc2ccccc2c1C(=O)c1cc(Br)c(O)c(Br)c1` the IC50 was > 10 µM (inactive).
`Cc1ccc(CCn2c3c(c4cc(Cl)ccc42)CN(C)CC3)cn1` was tested, and the IC50 was > 10 µM (inactive).
In the case of `O=C1C2CC=CCC2C(=O)N1SC(Cl)(Cl)Cl` (stereo unspecified), the IC50 is reported as 6.14 µM (inactive).
With `CCCCCCCCCCCCCCCC[N+](C)(C)CCN(Cc1ccc(OC)cc1)c1ncccn1` the IC50 was > 10 µM (inactive).
For `Cc1ccc2nc(N)[nH]c(=O)c2c1Sc1ccncc1`, the IC50 was > 10 µM (inactive).
In the case of `CN1CCCC(CC2c3ccccc3Sc3ccccc32)C1` (stereo unspecified), the IC50 is reported as > 10 µM (inactive).
In the case of `CN1CC[C@H](c2c(O)cc(O)c3c(=O)cc(-c4ccccc4Cl)oc23)[C@H](O)C1`, the IC50 is reported as 0.0807 µM.
`Cc1cc(O)c2ccccc2c1O` was tested, and the IC50 was > 10 µM (inactive).
With `Cc1nc(Nc2ncc(C(=O)Nc3c(C)cccc3Cl)s2)cc(N2CCN(CCO)CC2)n1` the IC50 was > 10 µM (inactive).
In the case of `C[C@@H]1C[C@H]2[C@@H]3CCC4=CC(=O)C=C[C@]4(C)[C@@]3(Cl)[C@@H](O)C[C@]2(C)[C@@]1(OC(=O)c1ccco1)C(=O)CCl`, the IC50 is reported as > 10 µM (inactive).
With `CCN(CC)CCOc1ccc(/C(=C(\Cl)c2ccccc2)c2ccccc2)cc1` the IC50 was > 10 µM (inactive).
With `O=C(NOCC1CC1)c1ccc(F)c(F)c1Nc1ccc(I)cc1Cl` the IC50 was > 10 µM (inactive).
In the case of `CCCCCCCCCCCC(=O)[O][Sn]([CH2]CCC)([CH2]CCC)[O]C(=O)CCCCCCCCCCC`, the IC50 is reported as > 10 µM (inactive).
For `CCC(=O)c1ccc(O)cc1`, the IC50 was > 10 µM (inactive).
For `Cc1c(C)c2c(c(C)c1O)CCC(C)(COc1ccc(CC3SC(=O)NC3=O)cc1)O2` (stereo unspecified), the IC50 was > 10 µM (inactive).
`Nc1nc(F)nc2c1ncn2[C@@H]1O[C@H](CO)[C@@H](O)[C@@H]1O` was tested, and the IC50 was > 10 µM (inactive).
With `O=C1c2c(O)ccc(O)c2C(=O)c2c(NCCNCCO)ccc(NCCNCCO)c21` the IC50 was > 10 µM (inactive).
Compound `C=C(C)[C@H]1Cc2c(ccc3c2O[C@@H]2COc4cc(OC)c(OC)cc4[C@@H]2C3=O)O1` has an IC50 of 0.223 µM.
